Legend:
[1] = biological target: T1, Probable G-protein coupled receptor 139 (Homo sapiens, UniProt Q6DWJ6); assay: Agonist activity at human GPR139 expressed in CHO-K1 cells assessed as increase in calcium flux by calcium 5 dye based FLIPR assay; assay type: functional, cell-based
T1 sequence (Q6DWJ6 whole entry): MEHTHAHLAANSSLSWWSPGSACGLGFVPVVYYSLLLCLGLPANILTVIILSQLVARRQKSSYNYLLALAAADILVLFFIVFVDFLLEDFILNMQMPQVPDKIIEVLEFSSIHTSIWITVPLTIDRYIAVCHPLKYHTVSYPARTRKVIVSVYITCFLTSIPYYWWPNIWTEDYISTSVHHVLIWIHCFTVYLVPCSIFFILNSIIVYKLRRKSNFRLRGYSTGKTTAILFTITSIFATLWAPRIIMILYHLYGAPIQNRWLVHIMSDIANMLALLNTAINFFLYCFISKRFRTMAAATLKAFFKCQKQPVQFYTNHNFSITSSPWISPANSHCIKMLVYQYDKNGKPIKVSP

[2] = biological target: T2, Probable G-protein coupled receptor 139 (Homo sapiens) (UniProt Q6DWJ6); assay: Agonist activity at human GPR139 expressed in CHO-K1 cells assessed as increase in calcium flux by calcium 5 dye based FLIPR assay relative to JNJ63533054; assay type: functional, cell-based; conditions: filed as agonist
T2 sequence (whole entry): T1 sequence (Q6DWJ6 whole entry)

[3] = biological target: T1, Probable G-protein coupled receptor 139; assay: Agonist activity at human GPR139 expressed in CHO-K1 cells assessed as induction of beta-arrestin 2 recruitment incubated for 90 mins by PathHunter assay; assay type: cell-based
[4] = biological target: T3, Probable G-protein coupled receptor 139 (Rattus norvegicus, UniProt P0C0W8); assay: Agonist activity at rat GPR139 expressed in CHO-K1 cells assessed as increase in calcium flux by calcium 5 dye based FLIPR assay; assay type: cell-based
T3 sequence (P0C0W8 whole entry): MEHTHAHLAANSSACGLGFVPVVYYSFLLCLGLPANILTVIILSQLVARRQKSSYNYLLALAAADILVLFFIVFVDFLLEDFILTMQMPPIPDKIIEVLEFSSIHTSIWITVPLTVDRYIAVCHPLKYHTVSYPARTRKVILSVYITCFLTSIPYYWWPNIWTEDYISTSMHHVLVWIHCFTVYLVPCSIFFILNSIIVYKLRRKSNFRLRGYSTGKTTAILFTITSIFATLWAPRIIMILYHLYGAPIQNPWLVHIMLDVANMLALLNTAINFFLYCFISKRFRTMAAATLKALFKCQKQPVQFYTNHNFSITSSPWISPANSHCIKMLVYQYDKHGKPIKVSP

[5] = biological target: T4, Probable G-protein coupled receptor 139 (Rattus norvegicus) (UniProt P0C0W8); assay: Agonist activity at rat GPR139 expressed in CHO-K1 cells assessed as increase in calcium flux by calcium 5 dye based FLIPR assay relative to JNJ63533054; assay type: cell-based
T4 sequence (whole entry): T3 sequence (P0C0W8 whole entry)

[6] = biological target: T2, Probable G-protein coupled receptor 139 (Homo sapiens); assay: Agonist activity at human GPR139 expressed in CHO-K1 cells assessed as induction of beta-arrestin 2 recruitment incubated for 90 mins by PathHunter assay relative to JNJ63533054; assay type: cell-based

| SMILES | EC50 ([1]; cho-k1) | Emax [2] | EC50 [3] | EC50 ([4]; cho-k1) | Emax ([5]; filed as agonist) | Emax ([6]; filed as agonist) | EC50 [1] | EC50 ([3]; cho-k1) | EC50 [4] | Emax [5] | Emax [6] |
| --- | --- | --- | --- | --- | --- | --- | --- | --- | --- | --- | --- |
| Cc1cc([C@H](C)NC(=O)Cn2nc3cccnn3c2=O)ccc1Cl | 1 nM | > 80% | ≥ 100 nM | 1 nM | > 80% | 50% | – | – | – | – | – |
| Cc1ccc([C@H](C)NC(=O)Cn2nc3c(C)ccnn3c2=O)cc1F | – | > 80% | – | 1 nM | > 80% | > 80% | < 1 nM | 10 nM | – | – | – |
| C[C@H](NC(=O)Cn1nc2c(C3CC3)ccnn2c1=O)c1ccc(Cl)c(F)c1 | – | > 80% | – | – | > 80% | > 80% | < 1 nM | 1 nM | < 1 nM | – | – |
| C[C@H](NC(=O)Cn1nc2cc(Cl)cnn2c1=O)c1ccc(Cl)c(F)c1 | – | > 80% | – | 1 nM | > 80% | 50% | < 1 nM | 1 nM | – | – | – |
| C[C@H](NC(=O)Cn1nc2ccccn2c1=O)c1ccc(C(F)(F)F)cc1 | 1 nM | > 80% | – | 1 nM | – | 50% | – | 10 nM | – | 25% | – |
| Cc1ccc2nn(CC(=O)N[C@@H](C)c3ccc(Cl)c(F)c3)c(=O)n2n1 | – | > 80% | – | – | > 80% | 50% | < 1 nM | 10 nM | < 1 nM | – | – |
| Cc1ccc([C@H](C)NC(=O)Cn2nc3cccnn3c2=O)cc1F | 1 nM | > 80% | – | 1 nM | 50% | 50% | – | 10 nM | – | – | – |
| Cc1ccn2c(=O)n(CC(=O)N[C@@H](C)c3ccc(Cl)c(F)c3)nc2c1 | – | > 80% | – | – | > 80% | > 80% | < 1 nM | 1 nM | < 1 nM | – | – |
| C[C@H](NC(=O)Cn1nc2ccc(F)cn2c1=O)c1ccc(Cl)cc1 | – | > 80% | – | – | 50% | 50% | < 1 nM | 1 nM | < 1 nM | – | – |
| Cc1ccc([C@H](C)NC(=O)Cn2nc3c(C4CCN(C)C4)cccn3c2=O)cc1 (stereo partly drawn) | – | 50% | ≥ 100 nM | – | – | – | ≥ 100 nM | – | ≥ 100 nM | 25% | 25% |
| C[C@H](NC(=O)Cn1nc2cc(Cl)ccn2c1=O)c1ccc(Cl)c(F)c1 | – | > 80% | – | – | > 80% | > 80% | < 1 nM | 1 nM | < 1 nM | – | – |
| C[C@H](NC(=O)Cn1nc2cccc(N3CCN(C)CC3)n2c1=O)c1ccc(OC(F)(F)F)cc1 | 1 nM | > 80% | ≥ 100 nM | – | – | 50% | – | – | ≥ 100 nM | 25% | – |
| Cc1ccc([C@H](C)NC(=O)Cn2nc3cccnn3c2=O)cc1Cl | 1 nM | > 80% | ≥ 100 nM | 1 nM | 50% | > 80% | – | – | – | – | – |
| COc1ccc2nn(CC(=O)N[C@@H](C)c3ccc(OC(F)(F)F)cc3)c(=O)n2c1 | – | 50% | < 1 nM | 1 nM | 25% | 50% | < 1 nM | – | – | – | – |
| C[C@H](NC(=O)Cn1nc2ccccn2c1=O)c1ccc(F)cc1 | 10 nM | 50% | ≥ 100 nM | – | – | – | – | – | ≥ 100 nM | 25% | < 25% |
| C[C@H](NC(=O)Cn1nc2cccnn2c1=O)c1ccc(C2CC2)c(F)c1 | 1 nM | > 80% | ≥ 100 nM | 1 nM | 50% | 50% | – | – | – | – | – |
| C[C@H](NC(=O)Cn1nc2ccc(Cl)nn2c1=O)c1ccc(OC(F)(F)F)cc1 | 1 nM | 50% | – | 1 nM | – | – | – | 10 nM | – | 25% | 25% |
| C[C@H](NC(=O)Cn1nc2c(N3CCC34CN(C)C4)cccn2c1=O)c1ccc(Cl)c(F)c1 | 10 nM | 50% | – | 10 nM | > 80% | – | – | 10 nM | – | – | 25% |
| C[C@H](NC(=O)Cn1nc2ncccn2c1=O)c1ccc(C2CC2)cc1 | – | 50% | ≥ 100 nM | – | – | – | ≥ 100 nM | – | ≥ 100 nM | < 25% | < 25% |

| SMILES | EC50 ([1]; cho-k1) | Emax [2] | EC50 [3] | EC50 ([4]; cho-k1) | Emax ([5]; filed as agonist) | Emax ([6]; filed as agonist) | EC50 [1] | EC50 ([3]; cho-k1) | EC50 [4] | Emax [5] | Emax [6] |
| --- | --- | --- | --- | --- | --- | --- | --- | --- | --- | --- | --- |
| COc1ccn2c(=O)n(CC(=O)N[C@@H](C)c3ccc(Cl)c(F)c3)nc2n1 | – | > 80% | – | – | > 80% | > 80% | < 1 nM | 1 nM | < 1 nM | – | – |
| C[C@H](NC(=O)Cn1nc2cc(Cl)cnn2c1=O)c1ccc(OC(F)(F)F)cc1 | 1 nM | > 80% | ≥ 100 nM | 1 nM | 50% | – | – | – | – | – | 25% |
| C[C@H](NC(=O)Cn1nc2cccnn2c1=O)c1ccc(Cl)c(F)c1 | 1 nM | > 80% | – | 1 nM | > 80% | 50% | – | 10 nM | – | – | – |
| Cc1ccc([C@H](C)NC(=O)Cn2nc3cccc(F)n3c2=O)cc1 | 1 nM | > 80% | – | 1 nM | – | 50% | – | 10 nM | – | 25% | – |
| C[C@H](NC(=O)Cn1nc2ccccn2c1=O)c1ccc(Cl)c(F)c1 | 1 nM | > 80% | – | – | > 80% | > 80% | – | 1 nM | < 1 nM | – | – |
| C[C@H](NC(=O)Cn1nc2cc(OC3CN(C)C3)ccn2c1=O)c1ccc(OC(F)(F)F)cc1 | 10 nM | 50% | ≥ 100 nM | – | 50% | > 80% | – | – | ≥ 100 nM | – | – |
| C[C@H](NC(=O)Cn1nc2cc(C#N)ccn2c1=O)c1ccc(Cl)c(F)c1 | 1 nM | > 80% | – | 1 nM | 50% | 50% | – | 1 nM | – | – | – |
| C[C@H](NC(=O)Cn1nc2ccc(F)cn2c1=O)c1ccc(C(F)(F)F)cc1 | 1 nM | > 80% | < 1 nM | 1 nM | 50% | 50% | – | – | – | – | – |
| Cc1ncc([C@H](C)NC(=O)Cn2nc3cc(Cl)ccn3c2=O)cc1F | 1 nM | > 80% | – | 1 nM | – | 50% | – | 10 nM | – | 25% | – |
| COc1ccc2nn(CC(=O)N[C@@H](C)c3ccc(Cl)cc3)c(=O)n2n1 | – | > 80% | < 1 nM | – | – | – | < 1 nM | – | ≥ 100 nM | 25% | 25% |
| C[C@H](NC(=O)Cn1nc2c(NC3COC3)ccnn2c1=O)c1ccc(Cl)c(F)c1 | – | > 80% | – | 1 nM | > 80% | > 80% | < 1 nM | 10 nM | – | – | – |
| C[C@H](NC(=O)Cn1nc2cccnn2c1=O)c1ccc(Cl)cc1 | 1 nM | > 80% | ≥ 100 nM | 10 nM | 50% | – | – | – | – | – | 25% |
| C[C@H](NC(=O)Cn1nc2cc(OC3COC3)ccn2c1=O)c1ccc(OC(F)(F)F)cc1 | 1 nM | > 80% | ≥ 100 nM | 1 nM | 50% | > 80% | – | – | – | – | – |
| COc1ccc2nn(CC(=O)N[C@@H](C)c3ccc(C)cc3)c(=O)n2c1 | 1 nM | > 80% | < 1 nM | – | – | – | – | – | < 1 nM | 25% | 25% |
| C[C@H](NC(=O)Cn1nc2c(NC3COC3)ccnn2c1=O)c1ccc(OC(F)(F)F)cc1 | 1 nM | > 80% | ≥ 100 nM | – | 50% | – | – | – | ≥ 100 nM | – | 25% |
| Cc1cnn2c(=O)n(CC(=O)N[C@@H](C)c3ccc(Cl)c(F)c3)nc2c1 | 1 nM | > 80% | ≥ 100 nM | 1 nM | > 80% | 50% | – | – | – | – | – |
| C[C@H](NC(=O)Cn1nc2cccnn2c1=O)c1ccc(OC(F)(F)F)c(F)c1 | 1 nM | > 80% | – | 1 nM | 50% | 50% | – | 10 nM | – | – | – |
| C[C@H](NC(=O)Cn1nc2ncccn2c1=O)c1ccc(OC(F)(F)F)c(F)c1 | 1 nM | > 80% | ≥ 100 nM | – | – | 25% | – | – | ≥ 100 nM | < 25% | – |
| CC(C)[C@H](NC(=O)Cn1nc2cccnn2c1=O)c1ccc(Cl)c(F)c1 | 1 nM | 50% | ≥ 100 nM | 1 nM | 50% | – | – | – | – | – | < 25% |
